Columns and labels:
[1] = biological target: WDR5 K296R (Homo sapiens, UniProt P61964, K296R); experiment: Immunoblot of WDR5 K296R mutant degradation in HEK293T cells; format: cell-based; conditions: HEK293T cells overexpressing K296R (Dox), indicated concentrations, 3 days
[2] = tested on: PDAC cell lines including MIA PaCa-2, BxPC-3, HPAF-II, Panc10.05, and PANC-1; conditions: previously reported; cited from earlier work
[3] = biological target: VCB E3 ligase complex (Homo sapiens, UniProt P40337); experiment: Isothermal titration calorimetry; format: binding
Chain of VCB E3 ligase complex (Q15369 whole entry): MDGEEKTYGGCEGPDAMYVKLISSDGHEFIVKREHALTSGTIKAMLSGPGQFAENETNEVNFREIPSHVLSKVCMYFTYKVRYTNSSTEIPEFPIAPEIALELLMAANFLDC
Chain of VCB E3 ligase complex (Q15370 1-104, further chain): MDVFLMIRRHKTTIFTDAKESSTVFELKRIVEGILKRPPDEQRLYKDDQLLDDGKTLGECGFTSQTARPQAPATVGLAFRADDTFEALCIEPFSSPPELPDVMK
Chain of VCB E3 ligase complex (P40337 54-213): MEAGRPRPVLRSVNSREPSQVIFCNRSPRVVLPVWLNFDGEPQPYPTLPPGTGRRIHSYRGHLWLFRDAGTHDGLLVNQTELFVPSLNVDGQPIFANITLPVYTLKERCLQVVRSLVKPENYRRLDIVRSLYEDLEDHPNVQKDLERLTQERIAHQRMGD

[4] = tested on: WDR5-11–VCB ternary complex; experiment: ITC binding cooperativity, VCB into WDR5-11 binary complex; parameters: species or system human; conditions: VCB binding to the WDR5-11 binary complex vs VCB into 11
[5] = biological target: T1, WDR5 (Homo sapiens, UniProt P61964); experiment: Western blotting of WDR5 degradation in PDAC cell lines; format: cell-based; conditions: 18 h
[6] = tested on: MIA PaCa-2 cells; experiment: TMT MS-based global proteomic study in MIA PaCa-2 cells; format: cell-based, human; conditions: 1.5 μM, 2 h, 4040 quantified proteins, cutoff P value less than 0.01, Log2 fold change greater than 0.5
[7] = tested on: PDAC cell lines including MIA PaCa-2, BxPC-3, HPAF-II, Panc10.05, and PANC-1; experiment: Antiproliferative activity in PDAC cell lines; format: cell-based, human; conditions: Homo sapiens, 144 h
[8] = Mouse PK study; conditions: 75 mg/kg
[9] = biological target: T1, WDR5; conditions: MIA PaCa-2 cells

Cc1ncsc1-c1ccc([C@H](C)NC(=O)[C@@H]2C[C@@H](O)CN2C(=O)[C@@H](NC(=O)CNC(=O)c2ccc(F)c(-c3ccc(N4C[C@@H](C)N(C)[C@@H](C)C4)c(NC(=O)c4c[nH]c(=O)cc4C(F)(F)F)c3)c2)C(C)(C)C)cc1 [MS67]
Degradation of WDR5 K296R mutant [1]: resistant to the MS67 treatment

CN1CCN(c2ccc(-c3cccc(CN4CCOCC4)c3)cc2NC(=O)c2c[nH]c(=O)cc2C(F)(F)F)CC1 [OICR-9429]
Antiproliferative activity [2]: lack of antiproliferative activity

Cc1ncsc1-c1ccc(CNC(=O)[C@@H]2C[C@@H](O)CN2C(=O)[C@@H](NC(=O)CNC(=O)c2ccc(F)c(-c3ccc(N4C[C@@H](C)N(C)[C@@H](C)C4)c(NC(=O)c4c[nH]c(=O)cc4C(F)(F)F)c3)c2)C(C)(C)C)cc1 [Compound 11, N-(2′-Fluoro-5′-((2-(((S)-1-((2S,4R)-4-hydroxy-2-((4-(4-methylthiazol-5-yl)benzyl)carbamoyl)pyrrolidin-1-yl)-3,3-dimethyl-1-oxobutan-2-yl)amino)-2-oxoethyl)carbamoyl)-4-((3S,5R)-3,4,5-trimethylpiperazin-1-yl)-[1,1′-biphenyl]-3-yl)-6-oxo-4-(trifluoromethyl)-1,6-dihydropyridine-3-carboxamide]
Kd [3]: 0.534 ± 0.048 µM | Binding cooperativity α = KD (binary)/KD (ternary) [4]: 2.30 | WDR5 degradation (WB) ([5]; MIA PaCa-2, BxPC-3, HPAF-II, Panc10.05 and PANC-1 cells, indicated concentrations): induced WDR5 degradation in a concentration-dependent manner | Hook effect in WDR5 degradation ([5]; PDAC cells, concentrations up to 50 μM): no “hook effect” observed | Proteome-wide degradation selectivity [6]: WDR5 is the only protein whose abundance was significantly decreased | GI50 [7]: 4 to 32 µM | Tmax ([8]; male, Swiss albino, mouse, plasma, ip): 30 min | Clinical signs during the PK study ([8]; mice, single IP injection): no clinical signs were observed | Plasma concentration maintained for the initial 4 h ([8]; mice, single IP injection): around 1 μM | Plasma concentration maintained over 12 h ([8]; mice, single IP injection): above 100 nM | Time at which maximal WDR5 degradation achieved ([9]; 0.1 μM): 24 h | Time at which significant WDR5 reduction observed ([9]; 0.1 μM): 2 h | WDR5 protein levels (WB verification for proteomics) ([9]; 1.5 μM, 2 h (Figure S5)): significantly reduced WDR5 protein levels | WDR5 protein levels (WB) ([9]; 0.1 and 0.5 μM, 18 h (Figure 3)): effectively decreased the WDR5 protein levels
